# Where a SMILES comes first, the peptide text is derived from it. Bridges are numbered along the chain shown (N, C = ends).
# Key:
# E. coli ML-35p = assay: Two-stage radial diffusion assay; assay type: cell-based, Escherichia coli
# Procedure: FIG. 4. Effect of salt on antibacterial activity of circular minidefensins. Human retrocyclin and monkey RTD-1 were tested against our standard lab stains: E. coli ML-35p, P. aeruginosa MR 3007, L. monocytogenes EGD, and S. aureus 930918. The bars show MIC values±SEM values that resulted from 3-6 radial diffusion assays per organism and assay condition.
# The effects of NaCl on the antimicrobial activity of retrocyclin and RTD-1, from two-stage radial diffusion assays, are compared in FIG. 4.
# HIV-IIIB = assay: Direct inactivation of HIV-1 virions (preincubation with virus, dilution, infection of H9 cells); assay type: cell-based; conditions: 200 μg/ml, 30 min, then diluted 190-fold
# Procedure: FIG. 12. […] Retrocyclin (2-200 μg/ml) was incubated with HIV-IIIB (MOI=10^−2) diluted in R10 media prior to infecting H9 cells. p24 antigen release was measured by ELISA. Limit of detection=10 pg/ml.
# To determine if retrocyclin directly inactivated HIV-1 virions, HIV-IIIB (MOI 10^−2) was incubated with 2 μg/ml, 20 μg/ml, or 200 μg/ml retrocyclin for 30 min at room temperature in R10 media. […] Viral replication was measured by collecting supernatant for 9 days at 3 day intervals to quantify HIV-1 p24 antigen by ELISA (FIG. 12). […] In this respect, the actions of retrocyclin are different from the direct inactivation of herpes simplex virus previously observed with human and rabbit α-defensins.
smiles,measurement,setting,value
"CC[C@H](C)[C@@H]1NC(=O)CNC(=O)[C@H](CCCNC(=N)N)NC(=O)CNC(=O)[C@@H]2CSSC[C@H](NC1=O)C(=O)N[C@@H](CCCNC(=N)N)C(=O)N[C@H]1CSSC[C@H](NC(=O)[C@H](CCCNC(=N)N)NC(=O)[C@@H]3CSSC[C@H](NC(=O)[C@H]([C@@H](C)CC)NC1=O)C(=O)NCC(=O)N[C@@H](CCCNC(=N)N)C(=O)NCC(=O)N[C@@H]([C@@H](C)CC)C(=O)N3)C(=O)N[C@@H]([C@@H](C)CC)C(=O)N2 [RC-100, Retrocyclin] (cyclo(GICRCICGRGICRCICGR); disulfide 3-16, 5-14, 7-12)",effect of salt on antimicrobial activity,E. coli ML-35p; hypersalinity (175 mM NaCl),only modestly inhibitory
same,antimicrobial activity,E. coli ML-35p; physiological (100 mM) NaCl,strong activity
same,HIV titer after incubation of virus with peptide,HIV-IIIB,not reduced

# From patent US7314858B2, “Retrocyclins: antiviral and antimicrobial peptides” (priority 2001, dated 2008)
